Assay results taken from patent US7446199B2, “Compositions useful as inhibitors of protein kinases” (Vertex Pharmaceuticals Incorporated, priority 2003, dated 2008).

Experiments:
Format in all cases: biochemical
FLT-3 = target: T1, FLT-3 (Homo sapiens, UniProt P36888); test: Inhibition of FLT-3, radiometric filter-binding assay; conditions: 90 μM ATP, 0.5 mg/mL pE4Y, room temperature
T1 construct: 0.02% BSA and 3 nM FLT-3
T1 sequence (P36888 27-993): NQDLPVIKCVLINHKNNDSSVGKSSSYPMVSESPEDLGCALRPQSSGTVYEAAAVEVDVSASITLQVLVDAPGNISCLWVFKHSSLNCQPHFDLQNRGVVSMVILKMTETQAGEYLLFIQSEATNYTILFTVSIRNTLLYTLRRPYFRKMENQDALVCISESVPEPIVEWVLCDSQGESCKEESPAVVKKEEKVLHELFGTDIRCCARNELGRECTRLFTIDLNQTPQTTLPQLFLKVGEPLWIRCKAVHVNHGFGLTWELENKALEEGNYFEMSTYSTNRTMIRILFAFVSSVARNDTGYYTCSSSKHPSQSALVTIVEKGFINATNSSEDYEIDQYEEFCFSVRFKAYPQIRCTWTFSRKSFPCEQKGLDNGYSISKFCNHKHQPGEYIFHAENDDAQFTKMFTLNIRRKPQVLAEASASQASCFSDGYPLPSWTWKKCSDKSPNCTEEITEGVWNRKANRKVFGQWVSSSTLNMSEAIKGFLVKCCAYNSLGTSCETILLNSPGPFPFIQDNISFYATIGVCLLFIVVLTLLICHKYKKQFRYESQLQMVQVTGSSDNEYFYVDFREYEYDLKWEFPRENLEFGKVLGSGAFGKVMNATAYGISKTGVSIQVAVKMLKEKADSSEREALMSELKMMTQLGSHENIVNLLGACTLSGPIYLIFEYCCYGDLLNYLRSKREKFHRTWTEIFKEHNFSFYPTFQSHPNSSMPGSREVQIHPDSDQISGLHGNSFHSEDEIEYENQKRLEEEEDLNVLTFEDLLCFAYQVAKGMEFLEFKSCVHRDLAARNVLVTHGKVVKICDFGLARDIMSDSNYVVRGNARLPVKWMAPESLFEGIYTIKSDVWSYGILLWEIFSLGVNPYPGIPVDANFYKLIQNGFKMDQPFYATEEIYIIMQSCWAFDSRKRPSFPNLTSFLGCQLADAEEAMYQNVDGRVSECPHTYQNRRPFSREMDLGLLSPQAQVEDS
Protocol: (§1) Compounds were screened for their ability to inhibit FLT-3 activity using a radiometric filter-binding assay. This assay monitors the ^33P incorporation into a substrate poly(Glu, Tyr) 4:1 (pE4Y). Reactions were carried out in a solution containing 100 mM HEPES (pH 7.5), 10 mM MgCl2, 25 mM NaCl, 1 mM DTT, 0.01% BSA and 2.5% DMSO. Final substrate concentrations in the assay were 90 μM ATP and 0.5 mg/mL pE4Y (both from Sigma Chemicals, St Louis, Mo.). The final concentration of compounds is generally between 0.01 and 5 μM. Typically, a 12-point titration was conducted by preparing serial dilutions from 10 mM DMSO stock of test compound. Reactions were carried out at room temperature.
Two assay solutions were prepared. Solution 1 contains 100 mM HEPES (pH 7.5), 10 mM MgCl2, 25 mM NaCl, 1 mg/ml pE4Y and 180 μM ATP(containing 0.3 μCi of [γ-^33P]ATP for each reaction). Solution 2 contains 100 mM HEPES (pH 7.5), 10 mM MgCl2, 25 mM NaCl, 2 mM DTT, 0.02% BSA and 3 nM FLT-3. The assay was run on a 96 well plate by mixing 50 μL each of Solution 1 and […] of the test compounds. The reaction was initiated with Solution2. After incubation for 20 minutes at room temperature, the reaction was stopped with 50 μL of 20% TCA containing 0.4 mM of ATP. All of the reaction volume was then transferred to a filter plate and washed with 5% TCA by a Harvester9600 from TOMTEC (Hamden, Conn.). The amount of ^33P incorporation into pE4y was analyzed by a Packard TopCount Microplate Scintillation Counter (Meriden, Conn.). The data was fitted using Prism software to get an IC50 or Ki.

c-Met = c-Met (Homo sapiens, UniProt P08581); test: Ki determination for the inhibition of c-Met, coupled enzyme system; conditions: 200 μM ATP, 10 μM polyGluTyr, 80 nM c-Met, 30° C.
Protocol: Compounds were screened for their ability to inhibit c-Met kinase activity using a standard coupled enzyme system (Fox et al., Protein Sci. 1998, 7, 2249). Reactions were carried out in a solution containing 100 mM HEPES (pH 7.5), 10 mM MgCl2, 25 mM NaCl, 300 μM NADH, 1 mM DTT, and 1.5% DMSO. Final substrate concentrations in the assay were 200 μM ATP (Sigma Chemicals, St Louis, Mo.) and 10 μM polyGluTyr (Sigma Chemical Company, St. Louis). Reactions were carried out at 30° C. and 80 nM c-Met. Final concentrations of the components of the coupled enzyme system were 2.5 mM phosphoenolpyruvate, 300 μM NADH, 30 μg/ml pyruvate kinase and 10 μg/ml lactate dehydrogenase.
An assay stock buffer solution was prepared containing all of the reagents listed above with the exception of ATP and a test compound of the present invention. The assay stock buffer solution (175 μl) was incubated in a 96 well plate with 5 μl of the test compound of the present invention at final concentrations spanning 0.006 μM to 12.5 μM at 30° C. for 10 minutes. Typically, a 12-point titration was conducted by preparing serial dilutions (from 10 mM compound stocks) with DMSO of the test compounds of the present invention in daughter plates. The reaction was initiated by the addition of 20 μl of ATP (final concentration 200 μM). Rates of reaction were obtained using a Molecular Devices Spectramax plate reader (Sunnyvale, Calif.) over 10 minutes at 30° C. The Ki values were determined from the rate data as a function of inhibitor concentration.

c-KIT = target: T2, c-KIT (Homo sapiens, UniProt P10721); test: Inhibition of c-KIT, radiometric filter-binding assay; conditions: 700 μM ATP, 0.5 mg/mL pE4Y, room temperature
T2 construct: 0.02% BSA and 25 nM c-KIT
Protocol: as §1, with “Compounds are screened for” for “Compounds were screened for”, “to inhibit c-KIT activity using” for “to inhibit FLT-3 activity using”, “(pE4Y). Reactions are carried out” for “(pE4Y). Reactions were carried out”, “assay were 700 μM ATP” for “assay were 90 μM ATP”, “12-point titration is conducted by” for “12-point titration was conducted by”
Two assay solutions are prepared. Solution 1 contains 100 mM HEPES (pH 7.5), 10 mM MgCl2, 25 mM NaCl, 1 mg/ml pE4Y and 1.4 mM ATP(containing 0.5 μCi of [γ-^33P]ATP for each reaction). Solution 2 contains 100 mM HEPES (pH 7.5), 10 mM MgCl2, 25 mM NaCl, 2 mM DTT, 0.02% BSA and 25 nM c-KIT. The assay is run on a 96 well plate by mixing 33 μL of Solution1 and 1.65 μL of the test compounds. The reaction is initiated with 33 μL of Solution2. After incubation for 20 minutes at room temperature, the reaction was stopped with 50 μL of 10% TCA containing 0.2 mM of ATP. All of the reaction volume is then transferred to a filter plate and washed with 5% TCA by a Harvester9600 from TOMTEC (Hamden, Conn.). The amount of ^33P incorporation into pE4y is analyzed by a Packard TopCount Microplate Scintillation Counter (Meriden, Conn.). The data is fitted using Prism software to get an IC50 or Ki.

JAK3 = target: T3, JAK3 (Homo sapiens, UniProt P52333); test: JAK3 inhibition assay (ELISA, Poly (Glu, Ala, Tyr) coated plates); conditions: 2 mM ATP, 60 minutes at 30° C.
T3 sequence (P52333 1-1124): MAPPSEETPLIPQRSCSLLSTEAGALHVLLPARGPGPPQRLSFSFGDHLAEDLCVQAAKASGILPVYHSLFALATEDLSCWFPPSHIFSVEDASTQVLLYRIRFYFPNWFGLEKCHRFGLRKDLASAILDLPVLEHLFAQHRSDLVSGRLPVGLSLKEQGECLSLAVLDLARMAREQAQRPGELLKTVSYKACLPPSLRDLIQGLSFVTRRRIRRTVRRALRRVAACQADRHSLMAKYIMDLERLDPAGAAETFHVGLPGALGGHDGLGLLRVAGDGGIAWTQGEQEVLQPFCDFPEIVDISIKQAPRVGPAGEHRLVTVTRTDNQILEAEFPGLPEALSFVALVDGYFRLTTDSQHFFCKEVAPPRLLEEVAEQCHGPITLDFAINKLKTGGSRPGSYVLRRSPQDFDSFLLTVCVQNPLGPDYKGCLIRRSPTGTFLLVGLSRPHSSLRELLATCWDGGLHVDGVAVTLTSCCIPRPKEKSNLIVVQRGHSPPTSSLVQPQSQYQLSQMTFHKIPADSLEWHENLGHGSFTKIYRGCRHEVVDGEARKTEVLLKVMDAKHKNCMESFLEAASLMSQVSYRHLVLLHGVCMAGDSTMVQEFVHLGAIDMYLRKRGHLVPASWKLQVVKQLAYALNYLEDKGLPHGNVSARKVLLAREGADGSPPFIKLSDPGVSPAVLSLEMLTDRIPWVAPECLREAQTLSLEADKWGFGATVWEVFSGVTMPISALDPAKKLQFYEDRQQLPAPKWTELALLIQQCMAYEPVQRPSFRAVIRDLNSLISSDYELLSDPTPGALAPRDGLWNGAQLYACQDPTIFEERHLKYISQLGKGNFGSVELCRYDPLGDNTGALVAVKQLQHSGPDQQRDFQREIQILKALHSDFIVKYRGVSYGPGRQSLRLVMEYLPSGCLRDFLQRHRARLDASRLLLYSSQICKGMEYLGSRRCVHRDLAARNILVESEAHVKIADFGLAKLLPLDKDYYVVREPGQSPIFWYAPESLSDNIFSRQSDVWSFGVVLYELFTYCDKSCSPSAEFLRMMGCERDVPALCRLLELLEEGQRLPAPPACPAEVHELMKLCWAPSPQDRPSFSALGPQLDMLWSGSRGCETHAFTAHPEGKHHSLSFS
Protocol: Compound inhibition of JAK3 was assayed by the method described by G. R. Brown, et al., Bioorg. Med. Chem. Lett. 2000, vol. 10, pp 575-579 in the following manner. Into Maxisorb plates, previously coated at 4° C. with Poly (Glu, Ala, Tyr) 6:3:1 then washed with phosphate buffered saline 0.05% and Tween (PBST), was added 2 mM ATP, 5 mM MgCl2, and a solution of compound in DMSO. The reaction was started with JAK enzyme and the plates incubated for 60 minutes at 30° C. The plates were then washed with PBST, […] HRP-Conjugated 4G10 antibody was added, and the plate incubated for 90 minutes at 30° C. The plate was again washed with PBST, […] TMB solution is added, and the plates were incubated for another 30 minutes at 30° C. Sulfuric acid ([…] of 1M) was added to stop the reaction and the plate is read at 450 nm to obtain the optical densities for analysis to determine IC50 values.

T2 sequence (P10721 26-976): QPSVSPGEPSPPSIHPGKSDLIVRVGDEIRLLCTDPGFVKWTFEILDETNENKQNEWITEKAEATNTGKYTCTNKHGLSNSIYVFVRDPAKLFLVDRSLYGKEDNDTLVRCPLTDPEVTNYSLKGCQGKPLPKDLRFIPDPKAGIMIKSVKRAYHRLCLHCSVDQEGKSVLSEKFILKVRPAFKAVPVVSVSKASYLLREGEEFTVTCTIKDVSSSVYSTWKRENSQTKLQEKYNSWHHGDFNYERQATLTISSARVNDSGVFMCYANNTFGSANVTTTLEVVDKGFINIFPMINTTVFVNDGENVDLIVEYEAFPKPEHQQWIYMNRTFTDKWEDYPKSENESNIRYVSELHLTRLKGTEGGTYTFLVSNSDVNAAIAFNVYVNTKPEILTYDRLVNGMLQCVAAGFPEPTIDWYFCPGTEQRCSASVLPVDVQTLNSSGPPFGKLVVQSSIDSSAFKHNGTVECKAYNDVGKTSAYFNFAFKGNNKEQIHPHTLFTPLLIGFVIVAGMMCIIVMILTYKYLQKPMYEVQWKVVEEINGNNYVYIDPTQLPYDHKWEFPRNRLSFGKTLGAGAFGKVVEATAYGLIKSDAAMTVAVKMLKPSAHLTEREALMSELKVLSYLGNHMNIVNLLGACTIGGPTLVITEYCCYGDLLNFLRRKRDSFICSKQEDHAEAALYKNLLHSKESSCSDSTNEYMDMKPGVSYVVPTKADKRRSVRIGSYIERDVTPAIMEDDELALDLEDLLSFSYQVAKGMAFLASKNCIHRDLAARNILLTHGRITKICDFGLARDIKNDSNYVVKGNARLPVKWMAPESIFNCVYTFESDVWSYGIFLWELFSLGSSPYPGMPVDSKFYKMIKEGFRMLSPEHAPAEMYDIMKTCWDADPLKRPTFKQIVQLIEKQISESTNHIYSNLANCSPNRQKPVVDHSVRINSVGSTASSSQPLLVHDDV
Sequence of c-Met (P08581 25-1390): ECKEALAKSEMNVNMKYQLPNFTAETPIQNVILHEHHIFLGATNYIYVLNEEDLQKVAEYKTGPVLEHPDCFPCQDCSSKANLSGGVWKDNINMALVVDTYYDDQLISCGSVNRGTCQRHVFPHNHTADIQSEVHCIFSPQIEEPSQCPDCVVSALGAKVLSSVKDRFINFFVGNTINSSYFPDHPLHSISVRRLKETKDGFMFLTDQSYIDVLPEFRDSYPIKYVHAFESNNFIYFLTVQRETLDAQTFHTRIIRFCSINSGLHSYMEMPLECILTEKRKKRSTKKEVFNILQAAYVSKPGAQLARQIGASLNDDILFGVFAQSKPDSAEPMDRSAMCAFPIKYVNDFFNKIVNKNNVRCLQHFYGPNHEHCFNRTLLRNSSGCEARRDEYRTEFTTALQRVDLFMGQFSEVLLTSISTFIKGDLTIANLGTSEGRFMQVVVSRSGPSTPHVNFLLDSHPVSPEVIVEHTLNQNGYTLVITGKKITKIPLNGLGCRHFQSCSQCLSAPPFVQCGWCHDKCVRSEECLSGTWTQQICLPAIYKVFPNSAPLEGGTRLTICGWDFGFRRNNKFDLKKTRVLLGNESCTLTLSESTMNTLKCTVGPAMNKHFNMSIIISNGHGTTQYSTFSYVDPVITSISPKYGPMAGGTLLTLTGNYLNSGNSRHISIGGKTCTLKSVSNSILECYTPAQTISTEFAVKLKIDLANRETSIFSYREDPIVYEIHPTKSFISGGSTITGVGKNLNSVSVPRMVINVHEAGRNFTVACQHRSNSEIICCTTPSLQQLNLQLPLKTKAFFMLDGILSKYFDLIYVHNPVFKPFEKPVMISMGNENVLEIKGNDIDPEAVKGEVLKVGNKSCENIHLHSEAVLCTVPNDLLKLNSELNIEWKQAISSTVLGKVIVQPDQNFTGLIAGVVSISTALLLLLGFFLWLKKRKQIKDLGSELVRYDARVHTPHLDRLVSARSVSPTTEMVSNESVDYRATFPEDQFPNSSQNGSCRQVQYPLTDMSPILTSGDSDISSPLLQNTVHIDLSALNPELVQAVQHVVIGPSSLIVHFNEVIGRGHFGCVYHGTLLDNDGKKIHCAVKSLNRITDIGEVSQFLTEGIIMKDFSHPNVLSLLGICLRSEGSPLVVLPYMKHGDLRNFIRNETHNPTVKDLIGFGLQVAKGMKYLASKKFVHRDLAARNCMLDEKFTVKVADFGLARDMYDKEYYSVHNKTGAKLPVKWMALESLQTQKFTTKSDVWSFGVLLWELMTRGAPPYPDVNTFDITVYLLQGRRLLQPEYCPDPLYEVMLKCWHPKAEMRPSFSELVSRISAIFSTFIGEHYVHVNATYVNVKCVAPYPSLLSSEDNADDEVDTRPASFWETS

Row | Structure (SMILES) | Ki (FLT-3) [µM] | Ki (c-Met) [nM] | Ki (c-KIT) [nM] | Ki (JAK3) [nM]
1 | CN(C)Cc1cnc2[nH]cc(-c3oncc3-c3cccc(F)c3F)c2c1 [Compound 54, {3-[4-(2,3-Difluoro-phenyl)-isoxazol-5-yl]-1H-pyrrolo[2,3-b]pyridin-5-ylmethyl}-dimethyl-amine] | 1 to 12.5 | 1000 to 12500 | – | –
2 | OCC1CCN(c2ccc(-c3cnc4[nH]cc(-c5nncn5-c5cccc(F)c5F)c4c3)cn2)CC1 [Compound 120, (5′-{3-[4-(2,3-Difluoro-phenyl)-4H-[1,2,4]triazol-3-yl]-1H-pyrrolo[2,3-b]pyridin-5-yl}-3,4,5,6-tetrahydro-2H-[1,2′]bi-pyridinyl-4-yl)-methanol] | – | < 200 | 200 to 1000 | 1000 to 12500
3 | Fc1cccc(-n2cnnc2-c2c[nH]c3ncc(-c4ccc(N5CCOCC5)nc4)cc23)c1F [Compound 121, 3-[4-(2,3-Difluoro-phenyl)-4H-[1,2,4]triazol-3-yl]-5-(6-morpholin-4-yl-pyridin-3-yl)-1H-pyrrolo[2,3-b]pyridine] | – | < 200 | 200 to 1000 | 1000 to 12500
4 | C[C@@H]1CN(c2ccc(-c3cnc4[nH]cc(-c5nncn5-c5cccc(F)c5F)c4c3)cn2)C[C@H](C)N1 [Compound 122, 3-[4-(2,3-Difluoro-phenyl)-4H-[1,2,4]triazol-3-yl]-5-[6-(3,5-dimethyl-piperazin-1-yl)-pyridin-3-yl]-1H-pyrrolo [2,3-b]pyridine] | – | < 200 | 200 to 1000 | 1000 to 12500

Second part, the compound after the results:

Row | Ki (FLT-3) [µM] | Ki (c-Met) [nM] | Ki (c-KIT) [nM] | Ki (JAK3) [nM] | Structure (SMILES)
5 | – | < 200 | 200 to 1000 | 1000 to 12500 | Fc1cccc(-n2cnnc2-c2c[nH]c3ncc(-c4ccc(N5CCC(N6CCCC6)CC5)nc4)cc23)c1F [Compound 123, 5′-{3-[4-(2,3-Difluoro-phenyl)-4H-[1,2,4]triazol-3-yl]-1H-pyrrolo[2,3-b]pyridin-5-yl}-4-pyrrolidin-1-yl-3,4,5,6-tetrahydro-2H-[1,2′]bipyridinyl]
6 | – | < 200 | 200 to 1000 | 200 to 1000 | Fc1cccc(-n2cnnc2-c2c[nH]c3ncc(-c4ccc(NCC5CCCO5)nc4)cc23)c1F (centres unmarked) [Compound 124, (5-{3-[4-(2,3-Difluoro-phenyl)-4H-[1,2,4]triazol-3-yl]-1H-pyrrolo[2,3-b]pyridin-5-yl}-pyridin-2-yl)-(tetrahydro-furan-2-ylmethyl)-amine]
